Literature values as cited in patent US20060189550A1, “Immunostimulatory, Covalently lipidated oligonucleotides” (Biomira Inc., priority 2002, published 2006).

Settings: Table K-2, reference compounds; experimental database value from LogKow

Compound	LogP Exp
Cc1c[nH]c2ccccc12 [3-methyl indole]	2.60
CCSC [Ethane, (methylthio)-]	1.54
CCCCOC [methyl n-butyl ether]	1.66
O=c1ccc2cc3ccoc3cc2o1 [psoralen]	1.67
